Assay results as given in paper PMC8895377, “In Vivo Targeting Replication Protein A for Cancer Therapy” (Frontiers in Oncology, 2022).
Converted amounts (≈) assume the structure as drawn. Like-named read-outs stand apart in the source and are kept apart here.

Columns and labels:
60 cancer cell lines = assay: Cell viability in 60 cancer cell lines (CellTiter-Glo); assay type: cell-based; conditions: 72 h, most values, read-out: cellular IC50
Description: In this study, 90-µl cell suspensions were seeded in 96-well plates in respective culture medium with a final cell density of 4 × 10^3 cells/well and incubated overnight. Here, 10× solution of 329 (top working concentration: 40 µM of test article in media with 3.16-fold serial dilutions to achieve 9 dose levels) was prepared, and 10 µl of drug solution or culture medium containing 0.5% DMSO (vehicle control) was added to the plate (triplicate for each drug concentration). Plates were incubated for 72 h at 37°C with 5% CO2 and then measured by CellTiter-Glo assay (Promega). Briefly, plates were equilibrated at room temperature for 30 min, and 50 µl of CellTiter-Glo reagent was added to each well. Contents were mixed for 5 min on an orbital shaker to induce cell lysis, and plates were further incubated at room temperature for 20 min to stabilize the luminescent signal. Luminescence was recorded using EnVision Multi Plate Reader. Percent cell growth was calculated relative to DMSO-treated cells (vehicle control), and the data were fit using non-linear regression analysis (GraphPad PRISM) to calculate cellular IC50.
Figure 4 Cellular activity of 329 in 60 cancer cell lines. Cell lines were treated with a 4-log range of replication protein A inhibitor (RPAi) 329 for 72 h. Cell viability was assessed using CellTiter-Glo luminescent viability assay. […]

[1] = Vehicle/excipient solubility screen; assay type: physicochemical
Description: (§1) With favorable potency, cellular activity, plasma stability, and a clear deficit in PK, we initiated a series of studies to assess and optimize a formulation of 329 for in vivo bioavailability. Here, 329 solubility was assessed in a series of additives, excipients, and co-solvents to identify initial favorable vehicles ( Table 2 ). […] A series of different formulations were assessed. The final formulation consisted of polysorbate 80, N-methyl-2-pyrrolidone (NMP), propylene glycol, and PEG 400 (+1.1 mol. eq. HCl added as 12 M HCl), and 329 was soluble up to 20 mg/ml, and 10-fold dilution in PBS was well dispersed with minimal precipitation.

[2] = test system: A549 adenocarcinoma and H460 large cell carcinoma; design: method as in doi:10.1101/2020.11.30.404640; conditions: both models, differing dosing regimens, DMSO/Tween; cited from earlier work
[3] = Intrinsic clearance and half-life in rat microsomes; assay type: in vitro ADME; conditions: for microsomal CLint: rat, microsomes
From the text: Toward the goal to identify efficacious and safe RPAi 329 treatment regimens, we conducted single-agent screening in two lung cancer cell line-derived xenograft models. […] Having optimized cellular uptake and solubility via the addition of the propyl morpholino in 329 and 2004, we sought to determine how these modifications impact in vivo anticancer activity using two NSCLC models, A549 adenocarcinoma and H460 large cell carcinoma. […] Analyses of intrinsic clearance and half-life were conducted in mouse and rat microsomes ( Table 1 ). […] These values are less than the rate of 48, which is considered rapid clearance. In rat microsomes, rates of ~64 were obtained for 329 and are less than the rapid rate of 71.

[4] = Chemical stability in lead formulation; assay type: physicochemical; conditions: for t90: 10 mg/ml in lead formulation; for predicted time stable: lead formulation; for fourteen-day stability: final formulation
Description: as §1
Figure 7 The 329 in vivo analysis. (A) Stability analysis. Compound stability was assessed over a 14-day time period at varying temperatures as indicated. (B) Pharmacokinetic analysis. Time course of drug plasma concentration over 24 h following drug administration as indicated in legend.

[5] = biological target: T1, RPA–DNA interaction (purified full-length RPA) (Homo sapiens, UniProt P27694); assay: EMSA of RPA–DNA interaction inhibition; assay type: binding; conditions: 6.25, 12.5, 25, 50 µM RPAi
T1 construct: Purified full-length RPA (120 ng) was incubated with the indicated RPAi
T1 sequence (P27694 whole entry): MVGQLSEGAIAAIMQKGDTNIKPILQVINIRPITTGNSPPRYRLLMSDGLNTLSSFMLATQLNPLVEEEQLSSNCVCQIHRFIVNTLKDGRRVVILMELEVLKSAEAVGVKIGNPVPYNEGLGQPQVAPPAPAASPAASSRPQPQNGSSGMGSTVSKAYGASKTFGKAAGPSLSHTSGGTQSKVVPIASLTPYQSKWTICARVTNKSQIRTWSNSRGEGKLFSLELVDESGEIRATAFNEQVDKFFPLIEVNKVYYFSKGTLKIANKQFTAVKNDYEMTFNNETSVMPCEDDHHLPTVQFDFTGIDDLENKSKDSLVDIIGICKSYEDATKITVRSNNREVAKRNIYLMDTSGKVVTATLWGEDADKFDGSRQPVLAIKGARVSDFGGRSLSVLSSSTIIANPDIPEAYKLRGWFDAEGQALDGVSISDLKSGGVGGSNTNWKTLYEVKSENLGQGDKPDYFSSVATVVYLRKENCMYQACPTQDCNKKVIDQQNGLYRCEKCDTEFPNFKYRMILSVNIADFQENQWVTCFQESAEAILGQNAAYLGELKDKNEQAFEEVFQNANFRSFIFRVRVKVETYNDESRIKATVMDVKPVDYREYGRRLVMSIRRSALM
T1 sequence (P15927 whole entry partner): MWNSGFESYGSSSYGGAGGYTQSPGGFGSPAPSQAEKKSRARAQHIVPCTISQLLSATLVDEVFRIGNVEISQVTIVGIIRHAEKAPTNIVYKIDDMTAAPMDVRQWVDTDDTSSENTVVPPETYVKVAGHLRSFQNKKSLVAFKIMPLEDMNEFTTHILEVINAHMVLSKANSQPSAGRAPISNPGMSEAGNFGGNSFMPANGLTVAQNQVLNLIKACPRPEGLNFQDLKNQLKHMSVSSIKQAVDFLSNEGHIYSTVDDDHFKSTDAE
T1 sequence (P35244 whole entry partner): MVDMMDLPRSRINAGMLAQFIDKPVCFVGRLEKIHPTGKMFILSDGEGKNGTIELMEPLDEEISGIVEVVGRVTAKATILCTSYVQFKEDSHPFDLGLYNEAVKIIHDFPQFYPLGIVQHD
Description: EMSAs were performed as previously described ([9]). Briefly, reactions were conducted in 20 mM HEPES (pH 7.8), 1 mM DTT, 0.001% NP-40, and 50 mM NaCl. RPAis were suspended in 100% dimethlysulfoxide (DMSO), and DMSO concentration in the final reaction mixture was constant at less than 5%. Purified full-length RPA (120 ng) was incubated with the indicated RPAi or vehicle in reaction buffer for 30 min before the addition of the [^32]P-labeled 34-base ssDNA probe. Reactions were incubated for 5 min at room temperature, and products were separated via 6% native polyacrylamide gel electrophoresis. The bound and unbound fractions were quantified by phosphor-imager analysis using ImageQuant software (Molecular Dynamics, CA), and data were fit by non-linear regression using GraphPad Prism.
Figure 2 Replication protein A inhibitor (RPAi) inhibitory activity. (A) Chemical structure of RPAi’s 329 and 2004. (B) EMSA analysis of RPA–DNA interaction inhibition by 329 and 2004. Lanes 3–6 in each panel contain 6.25, 12.5, 25, and 50 µM of the indicated RPAi, respectively. The * indicates the position of the Escherichia coli SSB–single-stranded DNA (ssDNA) complex that serves as an internal specificity control. (C) Cell viability of H460 NSCLC cells in response to 329 and 2004.

In the case of `CCOc1ccc2cc(C3CC(c4ccc(I)cc4)=NN3C(=O)CCCC(=O)NCCCN3CCOCC3)c(Cl)nc2c1` (centres unmarked) [compound 329], the IC50 (60 cancer cell lines) is reported as 5 to 10 µM, the solubility ([1]; 30% SBECD in water, aqueous with cosolvent or surfactant or cyclodextrin, read-out: Solubility) is reported as < 1000 µg/mL and the solubility ([1]; Cremophor EL, aqueous with cosolvent or surfactant or cyclodextrin, read-out: Solubility) is reported as < 1000 µg/mL. The solubility ([1]; Labrasol, aqueous with cosolvent or surfactant or cyclodextrin, read-out: Solubility) was 1100 µg/mL (≈ 1530 µM), the solubility ([1]; NMP (N-methyl-2-pyrrolidone), organic solvent or mixture, read-out: Solubility) was 70400 µg/mL (≈ 98000 µM) and the solubility ([1]; aqueous buffer, 50 mM sodium acetate pH 4, read-out: Solubility) was < 1000 µg/mL. For the same molecule, the solubility ([1]; ethanol, organic solvent or mixture, read-out: Solubility) was < 1000 µg/mL, the solubility ([1]; oleic acid, oil or lipid, read-out: Solubility) was 2400 µg/mL (≈ 3340 µM) and the solubility ([1]; organic solvent or mixture, polysorbate 80, NMP, propylene glycol, PEG 400 (+1.1 mol. eq. HCl), read-out: solubility in final formulation) was ≤ 20000 µg/mL. The solubility ([1]; polyethylene glycol 400, organic solvent or mixture, read-out: Solubility) was 1200 µg/mL (≈ 1670 µM), the solubility ([1]; polysorbate 80, aqueous with cosolvent or surfactant or cyclodextrin, Polysorbate 8O, read-out: Solubility) was < 1000 µg/mL and the solubility ([1]; propylene glycol, organic solvent or mixture, read-out: Solubility) was 1300 µg/mL (≈ 1810 µM). For the same molecule, the solubility ([1]; water, read-out: Solubility) was < 1000 µg/mL, the “single-agent anticancer activity in vivo” value [2] was “only modest single-agent anticancer activity” and the half-life ([3]; Rat microsomes) was 21.7 min. For the same molecule, the microsomal CLint ([3]; Rat microsomes, read-out: CLint) was 63.8 µL/min/mg, the microsomal CLint ([3]; rat microsomes, read-out: rate of clearance) was ~64 µL/min/mg and the t90 ([4]; 5°C (extrapolated)) was 2100 days. The predicted time stable ([4]; 5°C, extrapolated) was “over 5 years”, the t90 ([4]; 25°C) was 140 days and the t90 ([4]; 40°C) was 26 days. For the same molecule, the t90 ([4]; 60°C) was 3.2 days, the fourteen-day stability ([4]; extended incubations at 60°C) was “degradation was observed” and the predicted time stable ([4]; room temperature) was “over 3 months”. The fourteen-day stability ([4]; up to 40°C) was “very stable” and the “RPA inhibitory activity (RPA–DNA interaction, EMSA)” value [5] was “potent RPA inhibitory activity”.
